{"source": "patent US20050250850A1", "about": "“Amino acid composition promoting collagen synthesis” (Ajinomoto Co., Inc., priority 2004, published 2005)", "test_system": "collagen synthesis in skin", "assay": "Rate of collagen synthesis in rat skin (incorporation of stable isotope-labelled L-phenylalanine into collagen)", "format": "in vivo, SD (IGS) male rats", "details": "rats fed protein-free food for one week, continuous administration into the jugular vein for approx. three and a half hours, neutral-salt-soluble newly synthesized collagen, t-test vs saline, * p<0.05, FIG. 1", "description": "SD (IGS) male rats consisting of 4 to 6 individuals per group were fed protein-free food (0% casein) for one week to groups of, after which the rats were used in the following experiments.\nThe administration fluids were each administered continuously into the jugular vein for approximately three and a half hours. Stable isotope-labelled L-phenylalanine was used to determine the rate of collagen synthesis by measuring the labelled percentage of stable isotope-labelled L-phenylalanine that had been incorporated in collagen protein within a fixed period of time. Skin was used as the tissue, and fractions of newly synthesized collagen dissoluble in a neutral salt solution were used as the collagen.\nThe group administered with physiological saline was used as the control, and assay was conducted by t-test. The symbol * in the figure represents p<0.05. […] Rate of collagen synthesis=ΔEt/ΔEf/ΔT (1) • ΔEt: labelled percentage of the phenylalanine in collagen fractions per unit time • ΔEf: labelled percentage of the free phenylalanine in the skin tissue fluid per unit time • ΔT: unit time", "data": [{"smiles": "NC(=O)CC[C@H](N)C(=O)O", "note": "[L-glutamine]", "values": [{"measurement": "rate of collagen synthesis in comparison with the group administered with physiological saline", "value": "enhancement from saline was not observed"}]}]}
